Assay results published in the supplement of paper PMC10307832.

Tests used:
Assay in all cases: relative viability (nuclei count vs DMSO), 5 days (fraction); higher = more cells survive
[1] = compound: CCC1=CN=CN=C1N2CCN(CC2)CC3=NC4=C(N3)C=C(C=C4)C(F)(F)F
How it was run: (§1)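 Vehicle-anchored 1536-well plates of lung cancer cell lines, held overnight at 37 °C, were pinned with five library-drug doses (not always all listed) spaced by √10. No medium change followed over the next 5 days, after which the cells were fixed, permeabilised and Hoechst-stained together and imaged at 4×. Nuclei were counted with MetaXpress, and viability is treated-well nuclei over vehicle-well nuclei, taken as a median across plates. Plates passed with control CV below 25% and at least one doubling.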

[2] = compound: CCn1c(-c2nonc2N)nc2cnc(Oc3cccc(NC(=O)c4ccc(OCCN5CCOCC5)cc4)c3)cc21
How it was run: as §1

Mirin = compound: N=C1NC(=O)/C(=C/c2ccc(O)cc2)S1 [Mirin]
How it was run: as §1

[3] = compound: CCn1c(-c2nonc2N)nc2cnc(Oc3cccc(NC(=O)c4ccc(OCCN5CCOCC5)cc4)c3)cc21 + Cc1nc(Nc2ncc(C(=O)Nc3c(C)cccc3Cl)s2)cc(N2CCN(CCO)CC2)n1 [Dasatinib] (partner 0.075 µM)
How it was run: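 Nuclei were stained with Hoechst during a one-step fixation (final 0.05% Triton X-100, 1% formaldehyde, 1 ug/ml Hoechst) carried out 5 days after dosing, then counted on 4× images. The cells, lung cancer lines in 1536-well plates, had been dosed by pin tool the day after seeding with one drug alone or a fixed anchor-drug dose plus five library-drug doses (not always all listed) in √10 steps. Relative viability is the nuclei count in treated wells divided by that in vehicle wells, and each value is the median of duplicate plates.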

| Cell Line | relative viability ([1]; 0.04 µM) | relative viability ([1]; 0.1265 µM) | relative viability ([1]; 0.4 µM) | relative viability ([1]; 1.265 µM) | relative viability ([1]; 4 µM) | relative viability ([2]; 0.04 µM) | relative viability ([2]; 0.1265 µM) | relative viability ([2]; 0.4 µM) | relative viability ([2]; 1.265 µM) | relative viability ([2]; 4 µM) | relative viability (Mirin; 0.25 µM) | relative viability (Mirin; 0.7906 µM) | relative viability (Mirin; 2.5 µM) | relative viability (Mirin; 7.906 µM) | relative viability (Mirin; 25 µM) | relative viability ([3]; first compound 0.04 µM) | relative viability ([3]; first compound 0.1265 µM) | relative viability ([3]; first compound 1.265 µM) | relative viability ([3]; first compound 4 µM) | relative viability ([3]; first compound 0.4 µM) |
| --- | --- | --- | --- | --- | --- | --- | --- | --- | --- | --- | --- | --- | --- | --- | --- | --- | --- | --- | --- | --- |
| HCC-44 | 0.961 | 0.972 | 0.968 | 1.04 | 0.982 | 1.01 | 1.05 | 0.565 | 0.326 | 0.321 | 0.987 | 1.1 | 0.991 | 0.925 | 1.18 |  |  |  |  |  |
| HCC-78 | 0.875 | 0.894 | 0.888 | 0.746 | 0.756 | 1.2 | 1.08 | 0.75 | 0.955 | 1.16 | 0.887 | 0.838 | 1.11 | 0.894 | 1.09 | 0.428 | 0.474 | 0.4 | 0.428 |  |
| HCC-366 | 1 | 0.979 | 0.988 |  | 1.05 | 1.01 | 1.03 | 0.836 | 0.0886 | 0.098 | 1.03 | 0.868 | 0.982 | 1.03 | 0.947 | 0.699 | 0.504 | 0.0451 | 0.0508 | 0.0838 |
| HCC-827 | 1.05 | 1.04 | 0.998 | 0.942 | 0.988 | 1.02 | 0.961 | 0.911 | 0.821 | 0.756 | 1.03 | 1.09 | 1.01 | 1.02 | 1.19 | 0.24 | 0.328 | 0.484 | 0.424 | 0.459 |
| HOP-62 | 1.03 | 0.946 | 0.95 | 0.936 | 1.06 | 1.13 | 1.02 | 0.899 | 0.549 | 0.537 | 0.979 | 1.07 | 0.983 | 0.856 | 1.1 | 0.511 | 0.344 | 0.172 | 0.17 | 0.179 |
| IA-LM | 0.839 | 0.96 | 0.891 | 0.931 | 0.89 | 1.34 | 1.06 | 0.998 | 0.952 | 1.02 | 0.962 | 1.07 | 0.928 | 0.653 | 1.18 |  |  |  |  |  |
| LC-2-ad | 1 | 0.947 | 0.973 | 0.871 | 0.92 | 1.06 | 0.906 | 0.654 | 0.525 | 0.524 | 1.02 | 0.848 | 0.964 | 0.824 | 1.04 | 0.957 | 0.717 | 0.309 | 0.479 | 0.343 |
| LCLC-97TM1 | 0.849 | 0.95 | 1 | 1 | 0.95 | 1.37 | 1.1 |  | 0.899 | 1.03 | 1.1 | 0.706 | 1.13 | 0.621 | 0.677 | 0.969 | 0.929 | 0.99 | 0.811 | 0.673 |
| LCLC-103H | 1.02 | 0.927 | 0.928 | 0.841 | 1.11 | 1.09 | 0.981 | 0.783 | 0.705 | 0.775 | 0.99 | 0.977 | 1.05 | 0.929 | 1.07 | 0.532 | 0.37 | 0.227 | 0.178 | 0.134 |
| LK-2 | 0.989 | 1.01 | 0.832 | 0.718 | 0.912 | 1.23 | 1.19 | 0.774 | 0.686 | 0.843 | 0.881 | 0.686 | 1.03 | 0.647 | 0.534 | 0.39 | 0.493 | 0.178 | 0.252 | 0.208 |
| LOU-NH91 | 0.894 | 0.954 | 0.963 | 0.839 | 1.01 | 1.08 | 0.854 | 0.664 | 0.454 | 0.523 | 0.914 | 0.738 | 0.981 | 0.912 | 1.21 | 0.524 | 0.454 | 0.273 | 0.304 | 0.312 |
| LU99A | 1.14 | 0.904 | 0.902 | 0.821 | 0.92 | 1.02 | 0.694 | 0.67 | 0.536 | 0.504 | 0.997 | 0.783 | 0.922 | 0.864 | 0.857 | 0.573 | 0.467 | 0.367 | 0.388 | 0.352 |
| LXF-289 | 1.1 | 0.944 | 0.953 | 1.05 | 0.99 | 1.07 | 1.12 | 0.965 | 0.858 | 0.762 | 0.997 | 1.1 | 0.999 | 1.06 | 1.13 | 0.158 | 0.111 | 0.0848 | 0.0678 | 0.0564 |
| NCI-H23 | 0.852 | 0.918 | 0.812 | 0.742 | 0.954 | 1.21 | 1 | 0.567 | 0.674 | 0.589 | 1 |  | 0.907 | 0.819 | 0.907 | 0.927 | 0.758 | 0.611 | 0.543 | 0.294 |
| NCI-H322M | 1.05 | 0.95 | 0.935 | 0.729 | 1.01 | 1.22 | 1.17 | 0.882 | 0.656 | 0.72 | 0.99 | 0.867 | 0.967 | 1.19 | 0.944 | 0.255 | 0.216 | 0.274 | 0.259 | 0.231 |
| NCI-H1299 | 1.04 | 1.01 | 0.986 | 1.01 | 1.01 | 1.03 | 0.931 | 0.84 | 0.767 | 0.681 | 0.999 | 1.09 | 1.03 | 1 | 1.16 |  |  |  |  |  |
| NCI-H1648 | 0.916 | 0.664 |  | 1.1 | 0.611 | 1.27 | 1.34 | 0.982 | 1.35 | 0.875 | 1.04 | 0.726 | 1.09 | 0.552 | 0.709 |  |  |  |  |  |
| NCI-H1703 | 0.953 | 0.914 | 0.819 | 0.73 | 0.968 | 1.02 | 0.809 | 0.616 | 0.635 | 0.41 | 1.07 | 0.925 | 0.966 |  | 0.83 |  |  |  |  |  |
